Where “and” joins values, the source holds several entries; their conditions need not be identical. Equal entries are not always repeated. Inconclusive results and toxic doses are left out.
Tested on: P388 leukemia ip, CD2F1 mice, survival T/C
Assay: NCI In Vivo Anticancer Drug Screen. Data for tumor model P388 Leukemia (intraperitoneal) in CD2F1 (CDF1) mice
Details: endpoint: median survival time, higher = longer survival
Procedure, shortened: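 Mice carrying the transplanted tumor received test compound or vehicle. Survival was recorded in each group, and the value is the treated-group measurement divided by that of the vehicle-treated control group.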

[1] = dose: 12.5 mg/kg/injection, schedule: Q01DX009 (ip), vehicle: saline with Tween-80
[2] = dose: 25.0 mg/kg/injection, schedule: Q01DX009 (ip), vehicle: saline with Tween-80
[3] = dose: 50.0 mg/kg/injection, schedule: Q01DX009 (ip), vehicle: saline with Tween-80
[4] = dose: 6.25 mg/kg/injection, schedule: Q01DX009 (ip), vehicle: saline with Tween-80
[5] = dose: 100.0 mg/kg/injection, schedule: Q04DX003 (ip), vehicle: saline with Tween-80
[6] = dose: 200.0 mg/kg/injection, schedule: Q04DX003 (ip), vehicle: saline with Tween-80
[7] = dose: 60.0 mg/kg/injection, schedule: Q01DX005 (ip), vehicle: saline with Tween-80
[8] = dose: 120.0 mg/kg/injection, schedule: Q01DX005 (ip), vehicle: saline with Tween-80
[9] = dose: 240.0 mg/kg/injection, schedule: Q01DX005 (ip), vehicle: saline with Tween-80

Clc1ccc(N=C/C=C\C=C/Nc2ccc(Cl)cc2)cc1
T/C (dose: 5.0 mg/kg/injection, schedule: Q01DX009 (ip), vehicle: saline with Tween-80): 108 % of control | T/C (dose: 10.0 mg/kg/injection, schedule: Q01DX005 (ip), vehicle: saline with Tween-80): 108 % of control | T/C (dose: 10.0 mg/kg/injection, schedule: Q01DX009 (ip), vehicle: saline with Tween-80): 97 % of control | T/C (dose: 20.0 mg/kg/injection, schedule: Q01DX005 (ip), vehicle: saline with Tween-80): 95 % of control | T/C (dose: 20.0 mg/kg/injection, schedule: Q01DX009 (ip), vehicle: saline with Tween-80): 95 % of control | T/C (dose: 40.0 mg/kg/injection, schedule: Q01DX005 (ip), vehicle: saline with Tween-80): 100 % of control | T/C (dose: 80.0 mg/kg/injection, schedule: Q01DX005 (ip), vehicle: saline with Tween-80): 98 % of control | T/C (dose: 160.0 mg/kg/injection, schedule: Q01DX005 (ip), vehicle: saline with Tween-80): 93 % of control

BrCc1ccccc1C[P+](c1ccccc1)(c1ccccc1)c1ccccc1
T/C (dose: 1.5 mg/kg/injection, schedule: Q01DX009 (ip), vehicle: saline): 113 % of control | T/C (dose: 3.13 mg/kg/injection, schedule: Q01DX009 (ip), vehicle: saline): 104 % of control

CCO/C=N/NS(=O)(=O)c1ccc(C)cc1
T/C (dose: 6.25 mg/kg/injection, schedule: Q01DX009 (ip), vehicle: distilled water + Tween-80): 108 % of control | T/C (dose: 12.5 mg/kg/injection, schedule: Q01DX009 (ip), vehicle: distilled water + Tween-80): 108 % of control | T/C (dose: 12.5 mg/kg/injection, schedule: Q01DX009 (ip), vehicle: other): 104 % of control | T/C [1]: 105 % of control | T/C [2]: 98 % of control | T/C (dose: 50.0 mg/kg/injection, schedule: Q01DX009 (ip), vehicle: other): 104 % of control | T/C [3]: 96 % of control | T/C (dose: 100.0 mg/kg/injection, schedule: Q01DX009 (ip), vehicle: other): 98 % of control | T/C (dose: 100.0 mg/kg/injection, schedule: Q01DX009 (ip), vehicle: saline with Tween-80): 92 % of control | T/C (dose: 200.0 mg/kg/injection, schedule: Q01DX009 (ip), vehicle: other): 106 % of control

COc1cc(NC(=O)N(CCCl)N=O)cc(OC)c1OC
T/C (dose: 0.18 mg/kg/injection, schedule: Q01DX009 (ip), vehicle: alcohol): 107 % of control | T/C (dose: 0.27 mg/kg/injection, schedule: Q01DX009 (ip), vehicle: alcohol): 109 % of control | T/C (dose: 0.4 mg/kg/injection, schedule: Q01DX009 (ip), vehicle: alcohol): 100 % of control | T/C (dose: 0.6 mg/kg/injection, schedule: Q01DX009 (ip), vehicle: alcohol): 107 % of control | T/C (dose: 1.33 mg/kg/injection, schedule: Q01DX009 (ip), vehicle: saline + alcohol): 173 % of control | T/C (dose: 2.0 mg/kg/injection, schedule: Q01DX009 (ip), vehicle: saline + alcohol): 170 % of control | T/C (dose: 7.5 mg/kg/injection, schedule: Q04DX003 (ip), vehicle: saline + alcohol): 154 % of control | T/C (dose: 12.5 mg/kg/injection, schedule: Q04DX003 (ip), vehicle: other): 215 % of control | T/C (dose: 25.0 mg/kg/injection, schedule: Q04DX003 (ip), vehicle: other): 280 % of control | T/C (dose: 50.0 mg/kg/injection, schedule: Q04DX003 (ip), vehicle: other): 300 % of control

N#Cc1nnn(Cc2ccccc2)c1N
T/C [4]: 110 % of control | T/C [1]: 110 % of control | T/C [2]: 108 % of control | T/C [3]: 98 % of control and 86 % of control

O=C1N=C2SCCN2C1(c1ccccc1)c1ccccc1
T/C (dose: 25.0 mg/kg/injection, schedule: Q04DX003 (ip), vehicle: Klucel (hydroxypropylcellulose) (HPC)): 100 % of control | T/C (dose: 50.0 mg/kg/injection, schedule: Q04DX003 (ip), vehicle: Klucel (hydroxypropylcellulose) (HPC)): 100 % of control | T/C (dose: 100.0 mg/kg/injection, schedule: Q04DX003 (ip), vehicle: Klucel (hydroxypropylcellulose) (HPC)): 92 % of control | T/C (dose: 200.0 mg/kg/injection, schedule: Q04DX003 (ip), vehicle: Klucel (hydroxypropylcellulose) (HPC)): 109 % of control | T/C (dose: 400.0 mg/kg/injection, schedule: Q04DX003 (ip), vehicle: Klucel (hydroxypropylcellulose) (HPC)): 103 % of control

CC(=O)NC1C([Se][As](C)C)OC(COC(C)=O)C(OC(C)=O)C1OC(C)=O (configuration not stated)
T/C [4]: 122 % of control | T/C [1]: 116 % of control

CC[N+](C)(CC)CC(C)C1NS(=O)(=O)c2ccccc21 (configuration not stated)
T/C (dose: 25.0 mg/kg/injection, schedule: Q04DX003 (ip), vehicle: saline): 104 % of control | T/C (dose: 50.0 mg/kg/injection, schedule: Q04DX003 (ip), vehicle: saline): 98 % of control | T/C (dose: 100.0 mg/kg/injection, schedule: Q04DX003 (ip), vehicle: saline): 98 % of control and 100 % of control

CCCCCC(CN(C)C)C(=O)/C=C/c1ccccc1Cl (configuration not stated)
T/C (dose: 6.25 mg/kg/injection, schedule: Q01DX009 (ip), vehicle: saline): 104 % of control | T/C (dose: 12.5 mg/kg/injection, schedule: Q01DX009 (ip), vehicle: saline): 102 % of control | T/C (dose: 25.0 mg/kg/injection, schedule: Q01DX009 (ip), vehicle: saline): 93 % of control | T/C (dose: 50.0 mg/kg/injection, schedule: Q01DX009 (ip), vehicle: saline): 101 % of control

O=C(c1ccccc1)c1ccc([N+](=O)[O-])cc1
T/C (dose: 3.13 mg/kg/injection, schedule: Q01DX009 (ip), vehicle: saline with Tween-80): 97 % of control | T/C [4]: 95 % of control | T/C [1]: 91 % of control | T/C [2]: 91 % of control | T/C (dose: 50.0 mg/kg/injection, schedule: Q04DX003 (ip), vehicle: saline with Tween-80): 95 % of control | T/C [5]: 100 % of control | T/C [6]: 109 % of control

CC1(C)OC2OC(COC(=O)c3ccccc3)C(N3OC4C=CC3CC4)C2O1 (configuration not stated)
T/C (dose: 100.0 mg/kg/injection, schedule: Q04DX002 (ip), vehicle: Klucel (hydroxypropylcellulose) (HPC)): 103 % of control | T/C (dose: 200.0 mg/kg/injection, schedule: Q04DX002 (ip), vehicle: Klucel (hydroxypropylcellulose) (HPC)): 103 % of control | T/C (dose: 400.0 mg/kg/injection, schedule: Q04DX002 (ip), vehicle: Klucel (hydroxypropylcellulose) (HPC)): 102 % of control

CCN(CC)CCCNc1cc(C)nc2c1ccc1c2ccc2c(NCCCN(CC)CC)cc(C)nc21
T/C (dose: 12.5 mg/kg/injection, schedule: Q01DX009 (ip), vehicle: water): 105 % of control | T/C (dose: 25.0 mg/kg/injection, schedule: Q01DX009 (ip), vehicle: water): 103 % of control | T/C (dose: 50.0 mg/kg/injection, schedule: Q01DX009 (ip), vehicle: water): 116 % of control

OCCc1cc(Cl)no1
T/C (dose: 50.0 mg/kg/injection, schedule: Q01DX005 (ip), vehicle: saline with Tween-80): 100 % of control | T/C (dose: 100.0 mg/kg/injection, schedule: Q01DX005 (ip), vehicle: saline with Tween-80): 102 % of control | T/C (dose: 200.0 mg/kg/injection, schedule: Q01DX005 (ip), vehicle: saline with Tween-80): 109 % of control

O=C1C(C(=Nc2cccc(Cl)c2)c2ccccc2)=C(O)c2ccccc21
T/C (dose: 25.0 mg/kg/injection, schedule: Q04DX002 (ip), vehicle: saline with Tween-80): 93 % of control | T/C (dose: 50.0 mg/kg/injection, schedule: Q04DX002 (ip), vehicle: saline with Tween-80): 95 % of control

CCCCCCCCCCCCOC(=O)OCCCCCCCCCCCC
T/C [5]: 100 % of control | T/C [6]: 100 % of control | T/C (dose: 400.0 mg/kg/injection, schedule: Q04DX003 (ip), vehicle: saline with Tween-80): 100 % of control

O/N=C/C1CCCC[N-]1.[Co+3].[O-]/N=C/C1CCCC[N-]1.[O-]/N=C/C1CCCC[N-]1.[O-][Cl+3]([O-])([O-])O (configuration not stated)
T/C [7]: 97 % of control | T/C [8]: 103 % of control | T/C [9]: 104 % of control

CC(C)(C)c1cc(OCC2CO2)c(C(C)(C)C)cc1OCC1CO1 (configuration not stated)
T/C (dose: 50.0 mg/kg/injection, schedule: Q01DX009 (ip), vehicle: Klucel (hydroxypropylcellulose) (HPC)): 107 % of control | T/C (dose: 100.0 mg/kg/injection, schedule: Q01DX009 (ip), vehicle: Klucel (hydroxypropylcellulose) (HPC)): 105 % of control | T/C (dose: 200.0 mg/kg/injection, schedule: Q01DX009 (ip), vehicle: Klucel (hydroxypropylcellulose) (HPC)): 106 % of control | T/C (dose: 400.0 mg/kg/injection, schedule: Q01DX009 (ip), vehicle: Klucel (hydroxypropylcellulose) (HPC)): 116 % of control

CC(=O)N(OS(C)(=O)=O)C1CCCCC1
T/C (dose: 50.0 mg/kg/injection, schedule: Q01DX007 (ip), vehicle: saline with Tween-80): 92 % of control | T/C (dose: 100.0 mg/kg/injection, schedule: Q01DX007 (ip), vehicle: saline with Tween-80): 100 % of control | T/C (dose: 200.0 mg/kg/injection, schedule: Q01DX007 (ip), vehicle: saline with Tween-80): 90 % of control

O=c1c(Cc2c[nH]c3ccccc23)coc2ccccc12
T/C [7]: 100 % of control | T/C [8]: 90 % of control | T/C [9]: 89 % of control
